Where two headings read alike, the source gives them in different places. A value given as a limit tells only on which side of the number the result lay.

The target of test [1] is T1, NRAS/RAF1 (Homo sapiens, UniProt P01111).
T1 construct: (1-169); His6-SUMO (N, cleaved yes)
The test is described as follows: Protein-protein interaction (PPI) HTRF assay w.t. NRAS/RAF1. It counts as binding. As to conditions: Table 3; wt NRAS/RAF1. As to the method:
(§1) When RAS proteins are in the active GTP-bound conformation, they bind the effector protein RAF1 at the N-terminus Ras-binding domain (RBD, residues 52-131) (Tran, et al., 2021). Homogenous time resolved fluorescence (HTRF) was used to monitor the interaction between wt or mutant KRAS and RAF1 or wt NRAS and RAF1. Compounds were assayed in the presence of KRAS G12D/V and RAF1 versus wt KRAS to assess activity against mutant and w.t. KRAS. Similarly, compounds were then assayed in the presence of w.t. NRAS and RAF1 to assess RAS isoform selectivity. In all assay formats, His-tagged RAF1 protein was incubated with the HTRF donor, anti-6His Tb Cryptate gold (Cisbio 61DB10RDF), and biotinylated RAS proteins were incubated with the HTRF acceptor, streptavidin-d2 (CisBio 610SADLA). The intensity of the fluorescence signal emitted is proportional to binding between the two proteins. The donor solution was prepared by mixing 16 nM His-tagged RAF1 in protein dilution buffer with 1:100 anti-6His Tb cryptate in PPI-Terbium detection buffer. 16 nM biotinylated RAS protein was diluted into protein dilution buffer (50 mM Tris-HCl pH 7.5, 150 mM NaCl, 0.1 mM MgCl2, 1 mM TCEP, 0.005% Tween20) and mixed with 1:2000 Streptavidin-d2 diluted in PPI-Terbium detection buffer (CisBio 61DB10RDF). 50× compound in DMSO was mixed with 16 nM KRAS-acceptor solution and incubated for 30 minutes at room temperature. After compound pre-incubation with KRAS, the RAF1 donor solution was added to the KRAS-acceptor solution and incubated for 1 hour at room temperature. The fluorescence signal emitted was monitored at 665 nm and 615 nm using an Envision multimode plate reader. The HTRF ratio (665/615) was calculated and normalized to 0% inhibition in the absence of compound and 100% inhibition in the presence of untagged RAF1 protein. PPI KRAS G12D/RAF1, KRAS G12V/RAF1, w.t. KRAS/RAF1 and NRAS/RAF1 IC50 (uM) values of selected compounds are depicted in Table 3 and Table 4 with compounds having a value <0.1 uM as ++++; ≥0.1 uM to 1 uM as +++; ≥1 uM to 10 uM as ++; ≥10 uM to 100 uM as +; and ≥100 uM as NA.
(Time-resolved FRET reads energy transfer from a long-lived donor to a nearby acceptor.)

Test [2] has as its target T2, KRAS G12D/RAF1 (Homo sapiens, UniProt P01116, G12D).
T2 construct: KRAS (1-169) proteins were expressed in BL21 (DE3)-CodonPlus E. coli; His6-MBP (N, cleaved yes)
The test is described as follows: Protein-protein interaction (PPI) HTRF assay KRAS G12D/RAF1. It counts as binding. The note with it: Table 2. As to the method: as §1

Test [3] has as its target GST-tagged KRAS-G12D (2-169) (Homo sapiens, UniProt P01116, G12D). The test is described as follows: Nucleotide exchange assay (NEA), SOS-mediated, HTRF, KRAS G12D. It counts as biochemical. The note with it: IC50 extracted at 30 min, 20 nM SOScat. The method, boiled down:
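Compound preincubated 1 h at RT with 0.25 nM GST-KRAS-G12D (2-169) and anti-GST Tb donor, then 20 nM SOS1cat (564-1049) and 150 nM GTP-DY-647P1 added; pH 7.3 HEPES buffer with MgCl2 and DTT. HTRF monitored at RT; % inhibition versus DMSO and no-SOS blank, 4-parameter IC50 taken at 30 min.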

Test [4] deals with phospho-ERK in AGS cells. Briefly: pERK In Cell Western (ICW) assay (Method B), AGS. As to conditions: Homo sapiens, Table 2, 3 hours. It counts as cell-based. As to the method:
pERK ICW is a high throughput screening assay to evaluate the cellular potency of mutant KRAS small molecule inhibitors. KRAS mutant cell lines AGS, GP2D (KRAS-G12D) as well as SW620 (KRAS-G12V) were purchased from ATCC and maintained respectively in RPMI/DMEM/RPMI medium supplemented with 10% fetal bovine serum.
Cells grown in exponential phase were trypsinized, resuspended in fresh media, and viable cells were counted using a cell counter with Trypan Blue (BioRad TC20). Cells were seeded into 384-well plate (Greiner 781091) at density of 5,000 cells/well for AGS and 10,000 cells/well for GP2D/SW620 and allowed to grow overnight in a 37° C. CO2 incubator. The next day, compounds were dispensed into wells with a ½ log, 9-point serial dilution using a Tecan D300e dispenser and incubated for 3 hours in a 37° C. CO2 incubator. Cells were then fixed with paraformaldehyde (Electron Microscopy Sciences, 15710, 4% final concentration) for 30 min, permeabilized with wash buffer (1×PBS+0.1% Triton X-100) for 30 min and blocked with Odyssey blocking buffer (Li—COR 927-70001) for 1 hour, all at room temperature (RT). Phospho-ERK antibody (CST 4370L) was diluted 1:500 in Odyssey T20 (PBS) antibody diluent (Li—COR 927-75001) and incubated with cells overnight at 4° C. The next day, plates were washed 5× with wash buffer, incubated with IRDye 800 CW, Goat anti-Rabbit secondary antibody (Li—COR 926-32211, 1:800) and DRAQ5 (CST 4084L, 1:5,000) diluted in Odyssey T20 (PBS) antibody diluent for 1 hour, washed 5×, and imaged on an Odyssey CLx imaging system.
For data analysis, signal intensities from 800 (phosphor-ERK) and 700 (DRAQ5) channels were extracted, and phospho-ERK signals were normalized to DRAQ5 signals for each well and percent of blank control values were computed. Data were then imported into Graphpad Prism to compute half-maximal inhibitory concentrations (IC50) using a 4-parameter variable slope model. Z-factor for each plate was computed from signals derived from wells treated with either DMSO or 5 μM of control compound. AGS pERK ICW (Method B) IC50 (uM) values of selected compounds are depicted in Table 2 with compounds having a value ≥0.001 uM to 0.01 uM as ++++; ≥0.01 uM to 0.1 uM as +++; ≥0.1 uM to 1 uM as ++; ≥1 uM to 10 uM as + and ≥10 uM as NA.

The target in test [5] is GST-tagged KRAS-G12V (2-169) (Homo sapiens, UniProt P01116, G12V). The test is described as follows: Nucleotide exchange assay (NEA), SOS-mediated, HTRF, KRAS G12V. The test is classed as biochemical. The note with it: Table 4; IC50 extracted at 90 min; 80 nM SOS. An outline of the steps: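 GST-KRAS-G12V (2-169), 0.25 nM, pre-incubated 1 h at RT with compound, then SOS1cat (564-1049) 80 nM and GTP-DY-647P1 150 nM added in HEPES pH 7.3 buffer with MgCl2 and DTT. HTRF via anti-GST Tb cryptate read over 90 min; IC50 from 4-parameter fit at 90 min, blanked to no-SOS reactions.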

For test [6], the target named is T3, KRAS G12V/RAF1 (Homo sapiens, UniProt P01116, G12V).
T3 construct: KRAS (1-169) proteins were expressed in BL21 (DE3)-CodonPlus E. coli; His6-MBP (N, cleaved yes)
Briefly: Protein-protein interaction (PPI) HTRF assay KRAS G12V/RAF1. It counts as binding. The note with it: Table 3. As to the method:
as §1

Test [7] has as its system phospho-ERK in GP2D (KRAS-G12D) cells. The test is described as follows: pERK In Cell Western (ICW) assay (Method B), GP2D. As to conditions: GP2d, 3 h, Table 4. It counts as cell-based. The method, boiled down:
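Cells were seeded at 5,000/well (AGS) or 10,000/well (GP2D, SW620), grown overnight, then treated 3 h at 37 °C with a ½-log 9-point compound dilution. Fixed cells were stained for phospho-ERK with DRAQ5 as DNA counterstain; pERK/DRAQ5 ratio as percent of blank control gave IC50 by 4-parameter fit.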

Test [8] deals with T4, w.t. KRAS/RAF1 (Homo sapiens, UniProt P01116).
T4 construct: KRAS (1-169) proteins were expressed in BL21 (DE3)-CodonPlus E. coli; His6-MBP (N, cleaved yes)
Briefly: Protein-protein interaction (PPI) HTRF assay w.t. KRAS/RAF1. The test is classed as binding. The note with it: Table 3; wt KRAS/RAF1. As to the method:
as §1

Where [9] appears, read: Table 2, read-out: NEA-G12D (uM) IC50.

Chain of GST-tagged KRAS-G12D (2-169) (P01116 2-169 isoform P01116-2 G12D): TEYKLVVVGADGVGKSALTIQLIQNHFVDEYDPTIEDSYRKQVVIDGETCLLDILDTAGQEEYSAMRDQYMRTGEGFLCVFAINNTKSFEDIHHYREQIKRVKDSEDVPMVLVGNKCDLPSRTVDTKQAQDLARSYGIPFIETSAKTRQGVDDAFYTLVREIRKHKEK
T2 sequence (P01116 with tags, fused parts or gaps isoform P01116-2 G12D): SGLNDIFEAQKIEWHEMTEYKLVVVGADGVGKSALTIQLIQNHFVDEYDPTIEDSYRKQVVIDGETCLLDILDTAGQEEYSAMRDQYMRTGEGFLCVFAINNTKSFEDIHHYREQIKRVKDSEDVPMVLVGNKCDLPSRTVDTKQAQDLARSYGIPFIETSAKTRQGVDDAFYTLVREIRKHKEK
T1 sequence (P01111 with tags, fused parts or gaps): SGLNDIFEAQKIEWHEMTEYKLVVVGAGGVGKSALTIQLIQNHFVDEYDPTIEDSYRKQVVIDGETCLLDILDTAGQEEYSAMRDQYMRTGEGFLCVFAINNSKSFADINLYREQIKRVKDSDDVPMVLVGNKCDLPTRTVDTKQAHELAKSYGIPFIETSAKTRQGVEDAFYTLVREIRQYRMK
T3 sequence (P01116 with tags, fused parts or gaps isoform P01116-2 G12V): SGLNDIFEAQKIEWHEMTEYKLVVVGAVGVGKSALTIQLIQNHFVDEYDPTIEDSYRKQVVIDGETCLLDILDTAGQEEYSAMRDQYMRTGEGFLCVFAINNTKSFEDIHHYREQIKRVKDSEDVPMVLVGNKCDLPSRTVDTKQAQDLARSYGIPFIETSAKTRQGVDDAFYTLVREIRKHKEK
Chain of GST-tagged KRAS-G12V (2-169) (P01116 2-169 isoform P01116-2 G12V): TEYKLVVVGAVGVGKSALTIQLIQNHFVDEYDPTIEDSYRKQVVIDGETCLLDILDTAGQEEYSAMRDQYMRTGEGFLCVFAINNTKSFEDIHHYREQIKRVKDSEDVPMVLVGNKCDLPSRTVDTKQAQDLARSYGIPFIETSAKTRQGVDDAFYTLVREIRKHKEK
T4 sequence (P01116 with tags, fused parts or gaps isoform P01116-2): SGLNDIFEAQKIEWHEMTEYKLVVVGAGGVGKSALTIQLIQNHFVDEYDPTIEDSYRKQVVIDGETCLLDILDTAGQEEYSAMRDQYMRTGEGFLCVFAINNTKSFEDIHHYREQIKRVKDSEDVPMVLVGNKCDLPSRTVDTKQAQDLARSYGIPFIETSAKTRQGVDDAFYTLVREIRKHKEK

In the case of `N#Cc1c(N)sc(Cl)c1C1CCN(c2nc(OCC3(CN4CCOCC4)CC3)nc(N3C[C@H]4CC[C@@H](C3)N4)n2)C1` (stereo partly drawn) [Compound 4, 2-amino-5-chloro-4-[1-[4-[[1-(morpholinomethyl)cyclopropyl]methoxy]-6-[(1R,5S)-3,8-diazabicyclo[3.2.1]octan-3-yl]-1,3,5-triazin-2-yl]pyrrolidin-3-yl]thiophene-3-carbonitrile], the IC50 in test [1] was more than 100 µM; in test [2], 1 to 10 µM; in test [3] (setting [9]), less than 0.01 µM; in test [4], 1 to 10 µM.
On to `CN(C)C(=O)c1nn2c(c1Cl)CN(c1nc(OC[C@@]34CCCN3C[C@H](F)C4)nc(N3CC4(CCc5sc(N)c(C#N)c54)C3)n1)CCC2` [Compound 5, 5-[4-(2-amino-3-cyano-spiro[5,6-dihydrocyclopenta[b]thiophene-4,3′-azetidine]-1′-yl)-6-[[(2R,8S)-2-fluoro-1,2,3,5,6,7-hexahydropyrrolizin-8-yl]methoxy]-1,3,5-triazin-2-yl]-3-chloro-N,N-dimethyl-4,6,7,8-tetrahydropyrazolo[1,5-a][1,4]diazepine-2-carboxamide], for which the IC50 in test [1] is more than 100 µM; in test [2], 10 to 100 µM; in test [3] (setting [9]), less than 0.01 µM; in test [4] it was 0.1 to 1 µM.
Consider `C[C@]1(O)CN(c2nc(OC[C@@]34CCCN3C[C@H](F)C4)nc(N3CC4(CCc5sc(N)c(C#N)c54)C3)n2)CC[C@H]1O` [Compound 21, 2-amino-1′-[4-[(3S,4R)-3,4-dihydroxy-3-methyl-1-piperidyl]-6-[[(2R,8S)-2-fluoro-1,2,3,5,6,7-hexahydropyrrolizin-8-yl]methoxy]-1,3,5-triazin-2-yl]spiro[5,6-dihydrocyclopenta[b]thiophene-4,3′-azetidine]-3-carbonitrile], for which the IC50 in test [5] was in the range of 0.01 to 0.1 µM; in test [2] it was 0.1 to 1 µM; in test [3] (setting [9]) it was 0.01 to 0.1 µM; in test [3] (Table 4, read-out: NEA G12D IC50) it was 0.01 to 0.1 µM; in test [6], 1 to 10 µM; in test [7], 0.1 to 1 µM. The IC50 in test [4] and in test [8] was 0.1 to 1 µM in each case.

As usually defined, the IC50 is the concentration that inhibits the measured activity by half.
